Assay results published in PubChem BioAssay (NCI).
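Here, GI50 denotes the concentration required for 50% inhibition of growth. TGI is the concentration that stops growth completely.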

Experiments:
Test in all cases: DTP human tumour cell line panel, 384-well format
SK-MEL-5 melanoma = test system: SK-MEL-5 melanoma
EKVX NSCLC = test system: EKVX NSCLC
A498 renal = test system: A498 renal
PC-3 prostate = test system: PC-3 prostate
NCI-H322M lung = test system: NCI-H322M lung
HL-60(TB) leukemia = test system: HL-60(TB) leukemia
ACHN renal = test system: ACHN renal
SW-620 colon = test system: SW-620 colon
NCI-H522 lung = test system: NCI-H522 lung
OVCAR-5 ovarian = test system: OVCAR-5 ovarian
HT29 colon = test system: HT29 colon
DU-145 prostate = test system: DU-145 prostate
CCRF-CEM leukemia = test system: CCRF-CEM leukemia
HOP-62 NSCLC = test system: HOP-62 NSCLC
MCF7 breast = test system: MCF7 breast
SF-295 CNS = test system: SF-295 CNS
MOLT-4 leukemia = test system: MOLT-4 leukemia
SF-268 CNS = test system: SF-268 CNS
TK-10 renal = test system: TK-10 renal
HS 578T breast = test system: HS 578T breast
HOP-92 NSCLC = test system: HOP-92 NSCLC
MDA-MB-231 breast = test system: MDA-MB-231 breast
NCI-H460 NSCLC = test system: NCI-H460 NSCLC
IGROV1 ovarian = test system: IGROV1 ovarian
SNB-19 CNS = test system: SNB-19 CNS
786-0 renal = test system: 786-0 renal
U251 glioblastoma = test system: U251 glioblastoma
NCI-H23 lung = test system: NCI-H23 lung
LOX IMVI melanoma = test system: LOX IMVI melanoma
COLO 205 colon = test system: COLO 205 colon
HCC-2998 colon = test system: HCC-2998 colon
SN12C renal = test system: SN12C renal
M14 melanoma = test system: M14 melanoma
KM12 colon = test system: KM12 colon
T-47D breast = test system: T-47D breast
CAKI-1 renal = test system: CAKI-1 renal
UO-31 renal = test system: UO-31 renal
K-562 leukemia = test system: K-562 leukemia
HCT-116 colon = test system: HCT-116 colon
UACC-62 melanoma = test system: UACC-62 melanoma
RXF 393 renal = test system: RXF 393 renal
MDA-MB-468 breast = test system: MDA-MB-468 breast
SF-539 CNS = test system: SF-539 CNS
OVCAR-4 ovarian = test system: OVCAR-4 ovarian
MDA-MB-435 melanoma = test system: MDA-MB-435 melanoma
UACC-257 melanoma = test system: UACC-257 melanoma
SK-OV-3 ovarian = test system: SK-OV-3 ovarian

C=CCN(/C=C1\C(=O)O[C@H](COC)[C@@]2(C)C1=C(O)C(=O)C1=C2[C@H](OC(C)=O)C[C@]2(C)C(=O)CC[C@@H]12)CC=C
GI50 (SK-MEL-5 melanoma): 2.96 µM
TGI (SK-MEL-5 melanoma): 14.7 µM
GI50 (EKVX NSCLC): 0.504 µM
TGI (EKVX NSCLC): 13.6 µM
GI50 (A498 renal): 0.39 µM
TGI (A498 renal): 5.3 µM
GI50 (PC-3 prostate): 0.648 µM
TGI (PC-3 prostate): 18 µM
GI50 (NCI-H322M lung): 1.21 µM
TGI (NCI-H322M lung): 23.3 µM
GI50 (HL-60(TB) leukemia): 0.156 µM
TGI (HL-60(TB) leukemia): 0.983 µM
GI50 (ACHN renal): 4.71 µM
TGI (ACHN renal): > 100 µM
GI50 (SW-620 colon): 7.45 µM
TGI (SW-620 colon): > 100 µM
GI50 (NCI-H522 lung): 2.08 µM
TGI (NCI-H522 lung): 14.4 µM
GI50 (OVCAR-5 ovarian): 3.62 µM
TGI (OVCAR-5 ovarian): 42.9 µM
GI50 (HT29 colon): 1.08 µM
TGI (HT29 colon): 21.7 µM
GI50 (DU-145 prostate): 4.41 µM
TGI (DU-145 prostate): 59.7 µM
GI50 (CCRF-CEM leukemia): 0.723 µM
TGI (CCRF-CEM leukemia): 4.53 µM
GI50 (HOP-62 NSCLC): 10.3 µM
TGI (HOP-62 NSCLC): > 100 µM
GI50 (MCF7 breast): 0.441 µM
TGI (MCF7 breast): 19.4 µM
GI50 (SF-295 CNS): 2.12 µM
TGI (SF-295 CNS): 18.7 µM
GI50 (MOLT-4 leukemia): 0.333 µM
TGI (MOLT-4 leukemia): 2.02 µM
GI50 (SF-268 CNS): 1.82 µM
TGI (SF-268 CNS): 19.9 µM
GI50 (TK-10 renal): 1.19 µM
TGI (TK-10 renal): 15.2 µM
GI50 (HS 578T breast): 1.15 µM
TGI (HS 578T breast): 6.93 µM
GI50 (HOP-92 NSCLC): 2.47 µM
TGI (HOP-92 NSCLC): 37.6 µM
GI50 (MDA-MB-231 breast): 3.68 µM
TGI (MDA-MB-231 breast): > 100 µM
GI50 (NCI-H460 NSCLC): 0.668 µM
TGI (NCI-H460 NSCLC): 90.1 µM
GI50 (IGROV1 ovarian): 0.406 µM
TGI (IGROV1 ovarian): 5.26 µM
GI50 (SNB-19 CNS): 13.7 µM
TGI (SNB-19 CNS): > 100 µM
GI50 ([…]-0 renal): 4.45 µM
TGI (786-0 renal): 28.5 µM
GI50 (U251 glioblastoma): 13 µM
TGI (U251 glioblastoma): 82.7 µM
GI50 (NCI-H23 lung): 4.35 µM
TGI (NCI-H23 lung): 33.8 µM
GI50 (LOX IMVI melanoma): 5.49 µM
TGI (LOX IMVI melanoma): 39.1 µM
GI50 (COLO 205 colon): 0.793 µM
TGI (COLO 205 colon): 4.64 µM
GI50 (HCC-2998 colon): 0.671 µM
TGI (HCC-2998 colon): 6.09 µM
GI50 (SN12C renal): 2.08 µM
TGI (SN12C renal): > 100 µM
GI50 (M14 melanoma): 2.82 µM
TGI (M14 melanoma): 30.5 µM
GI50 (KM12 colon): 2.66 µM
TGI (KM12 colon): 96.3 µM
GI50 (T-47D breast): 0.724 µM
TGI (T-47D breast): 10.2 µM
GI50 (CAKI-1 renal): 2.75 µM
TGI (CAKI-1 renal): > 100 µM
GI50 (UO-31 renal): 2.81 µM
TGI (UO-31 renal): > 100 µM
GI50 (K-562 leukemia): 17.6 µM
TGI (K-562 leukemia): > 100 µM
GI50 (HCT-116 colon): 4.61 µM
TGI (HCT-116 colon): 31.4 µM
GI50 (UACC-62 melanoma): 0.89 µM
TGI (UACC-62 melanoma): 8.77 µM
GI50 (RXF 393 renal): 0.0828 µM
TGI (RXF 393 renal): 0.65 µM
GI50 (MDA-MB-468 breast): 0.0764 µM
TGI (MDA-MB-468 breast): 2.09 µM
GI50 (SF-539 CNS): 7.45 µM
TGI (SF-539 CNS): > 100 µM
GI50 (OVCAR-4 ovarian): 0.787 µM
TGI (OVCAR-4 ovarian): 33.5 µM
GI50 (MDA-MB-435 melanoma): 8.15 µM
TGI (MDA-MB-435 melanoma): 38.1 µM
GI50 (UACC-257 melanoma): 4.01 µM
TGI (UACC-257 melanoma): 43.9 µM
GI50 (SK-OV-3 ovarian): 0.68 µM
TGI (SK-OV-3 ovarian): 15.3 µM
